This note sets out measurements from article PMC8118680 (Chemistry of Heterocyclic Compounds, 2021).

One series has as its system MDCK cells. Kind of series: Cytotoxicity in MDCK cells, MTT assay. The series is classed as cell-based. As to conditions: result in words.
Series [1] relates to influenza virus strain A/Puerto Rico/8/34 (H1N1). Type of series: cell-based. Particulars: result in words; for activity against influenza virus strain A/Puerto Rico/8/34 (H1N1): MDCK cells.

As to `Cc1cc(C)nc(Sc2nnnn2CC(=O)O)n1` [Compound 12b, {5-[(4,6-Dimethylpyrimidin-2-yl)sulfanyl]-1 H -tetrazol-1-yl}acetic acid], the cytotoxicity result in the series on MDCK cells was “significantly lower cytotoxicity”. In series [1] (influenza A H1N1 in MDCK cells), the “SI relative to the reference drug rimantadine” value was “twice”.
`O=C(Cn1nnc(-c2ccccc2)n1)NNc1ncccn1` [Compound 7a, N '-(Pyrimidin-2-yl)-2-(5-phenyl-2 H -tetrazol-2-yl)acetohydrazide]: in series [1], the “activity against influenza virus strain A/Puerto Rico/8/34 (H1N1)” value is “did not show activity”.
On the same count and under the same terms, next, `c1ccc(-n2nnnc2Sc2ncccn2)cc1` [Compound 12a, 2-[(1-Phenyl-1 H -tetrazol-5-yl)sulfanyl]pyrimidine]: “did not show activity”.
Same read-out and setting: the result for `Cc1cc(C)nc(NNC(=O)Cn2nnc(-c3ccccc3)n2)n1` [Compound 7b, N '-(4,6-Dimethylpyrimidin-2-yl)-2-(5-phenyl-2 H -tetrazol-2-yl)acetohydrazide] reads “did not show activity”.
